# Experimental data as given in patent US9045474B2, “Compounds and compositions for mitigating tissue damage and lethality” (The Regents of the University of California, priority 2010, dated 2015).
# Where “and” joins values, the source holds several entries; their conditions need not be identical. Equal entries are not always repeated. Entries after “also recorded” stand apart in the source; their conditions may differ.
# Legend:
# RS112 cells = test: DEL plating assay for mitigation of radiation damage (treatment after 2000Gy); type: cell-based, Saccharomyces cerevisiae
# Experimental: The mitigation protocol is based on the same DEL assay principle of recombination of the disrupted HIS3 gene that renders the cells capable of synthesizing its own histidine following radiation exposure. To establish mitigation properties of the compounds in question, the classical DEL protocol is modified as follows: first the RS112 cells are irradiated with 2000Gy and then the treatments are administered at 0 min, 10 min, 20 min, 30 min, and 60 min, incubated for 2 hrs, and plated on +13 and −His agar plates. The efficacy of the compounds is scored the same way as in the classical DEL protocol. Yel1 and Yel2 analogues that are efficacious in the HTS and classical DEL assay are analyzed for mitigation activity using this modified DEL protocol.
# Six confirmed hits were also tested for radioprotection with the compounds being presented to irradiated cells at different time points following irradiation exposure. The DEL Plating Assay was used with a radiation sensitive Saccharomyces cerevisiae RS112 strain.
# The general DEL Assay is described above. In this example, DEL assay is a genetic construct in the Saccharomyces cerevisiae RS112 strain where a plasmid with an internal fragment of the HIS3 gene has been integrated at the HIS3 locus, yielding an integrative disruption of the HIS3 gene. […] The construct reverts to HIS3+ by recombination between the two his3 deletion alleles which is, in 99% of the cases, associated with the deletion of the entire 6 kilobasepairs of DNA comprising the integrated plasmid. DEL events are inducible with a variety of DNA-assaulting agents: radiation, smoking, UV exposure, 92% of the known carcinogens, etc.
# RS112 cells irradiated with 2000Gy show an induction of the deletion frequencies (DEL events) and roughly a 90% killing.
# DEL RS112 tester strain = test: DEL assay, damage by chemical carcinogen MMS; type: cell-based, Saccharomyces cerevisiae; conditions: 15 uM, 1 hrs after exposure to MMS
# Text: A DEL assay, described above, is used for assessing mitigation of damage induced by chemical carcinogens by compounds of invention.
# Tests in this example show administration of Yel001 and Yel002 confers reduction against chemical carcinogen Methyl methanesulfonate (MMS) in vitro.
# Reduction of cytotoxicity and genotoxicity with Yel002 is p<0.007 and p<0.04 restively; p-values for Yel001 are 0.0007 (genotoxicity) and 0.1 for cytotoxicity.
# C3H mice [1] = test: Recovery of the hematopoietic system after 6 Gy irradiation; type: in vivo, mouse
# Text: WBC-total white blood cells (K/uL), NE—neutrophils (K/uL), and LY—lymphocytes (K/uL). With 1—tail, Student's t-Student's t-test, WBC and NE, along with monocytes, eosinophils, and basophils (data not shown) are p<0.05.
# RBC— red blood cells (M/uL), HB-hemoglobin (g/dL), and HCT-hematocrit (%).
# C3H mice [2] = test: Radioprotection experiments in C3H mice (8Gy, compound before exposure); type: in vivo, mouse; conditions: 8Gy (LD100/30), 75 mg/kg
# Text: Only the results for Compound 4 are significant at Day 14 post irradiation. Irradiated controls died on Day 13 while most of the treated mice survived to Day 18, and mice in group 4 and 1 have survived to Day 24. The limitation of this study was the number of mice in each group due to the small quantities of the commercially available compounds.
# C3H mice [3] = test: Mitigation of radiation-induced lethality in C3H mice (8Gy, LD100/30)
# Experimental: Radiomitigation studies were conduced by pre-treating C3H mice with the compounds of interest at as concentration of 75 mg/kg and at 24 hrs and 1 hr before an 8 Gy exposure. On a 5×24 mitigation treatment protocol mice were first lethally irradiated with 8 Gy and 24 hrs later received the first subcutaneous injection with the compound suspension with subsequent injections at 48, 72, 96, and 120 hrs. The concentration of the compound in the suspension was 75 mg/kg carrier with either 1N saline or phosphate buffer solution (PBS).
# C3H mice in the mitigation experiment were irradiated with 8Gy and then injected with 75 mg/kg 1 hr post exposure and then again 25 hrs post exposure.
# [4] = test system: RS112 strain of S. cerevisiae; test: Classical DEL plating assay, radioprotection at 2000Gy irradiation; type: cell-based, Saccharomyces cerevisiae
# Experimental: All DEL assays utilize the established methodology of “recombination” (deletion of the interruption segment and consequent end joining of the adjacent sequences) of a disrupted histidine gene that renders yeast cells exposed to radiation capable of growing on media lacking this amino acid. In the classical DEL assay radiation sensitive RS112 strain of S. cerevisiae is added to the compounds of interest suspended in complete media, incubated for 2 hrs, and irradiated at 2000Gy. The cells are then plated onto full (+13) and lacking histidine (−His) agar plates. After incubation the colonies are scored and recombination events are calculated. The efficacy of the compound is evaluated as a reduced fraction of DEL recombinations in comparison to that of irradiated controls without treatment. Radioprotectors decrease the frequency of such recombination frequencies after radiation exposure.
# A plasmid with an internal fragment of the HIS3 gene, which is responsible for histidine synthesis in yeast, without which cells cannot survive in media lacking histidine, has been integrated at the HIS3 locus, yielding an integrative disruption of the HIS3 gene (Schiestl, R. H., et al., Genetics, 1988. 119(2): p. 237-47). […]
# [5] = test system: yeast DEL tester strain RS112; test: DEL assay, UV radiation-induced damage; type: cell-based, Saccharomyces cerevisiae
# Experimental: DEL tester strain was irradiated with 4000 J/m^2 in the ultraviolet range and treated with Yel001 or Yel002 at 60 minutes at the concentration of 15 uM.
# primary keratinocytes = test: Proliferation of primary keratinocytes after 5Gy irradiation; type: cell-based, human; conditions: 5 uM, cultured 11 days
# Experimental: After the IR the cells were treated with Yel002 and cultured for 11 days.
# [6] = test system: primary human keratinocytes; test: Senescence of primary keratinocytes in co-culture; type: cell-based
structure (smiles),measurement,setting,value
COc1ccc2cc(-c3nc4ccc(C)cn4c3NCc3ccco3)c(=O)[nH]c2c1 [Yel002],reduction of DEL events (gene reversion frequency),"RS112 cells; compound added 0-60 min after 2000Gy, p<0.05",decreased DEL frequencies; also recorded: significant reduction of genetic instability
same,mitigation of radiation cytotoxicity (survival),"RS112 cells; compound added at time points after 2000Gy, significant only at 60 min",increased survival fractions; also recorded: mitigation of radiation cytotoxicity has been observed
same,genotoxicity and cytotoxicity by MMS,DEL RS112 tester strain,reduction in genotoxicity and cytotoxicity; also recorded: can be mitigated
same,"recovery of total white blood cells, red blood cells, and platelets",C3H mice [1]; 75 mg/kg s.c. 5×24,increases the recovery
same,recovery of the hematopoietic system,C3H mice [1]; 75 mg/kg s.c. 5×24 hr schedule,promote the recovery of the hematopoietic system
same,survival versus 8 Gy control group,C3H mice [2]; listed as 5,noticeable difference in survival
same,survival versus 8 Gy control group,C3H mice [2]; listed as Compound 5,increase in survival
same,mitigation efficacy,"C3H mice [3]; 8Gy, 75 mg/kg 1.25 protocol",show activity
same,mice survived LD100/30 irradiation,"C3H mice [3]; 8Gy, 75 mg/kg at 1 hr and 25 hrs post exposure, past 30 days, first small study",67%
same,survival at 30 days,"C3H mice [3]; 8Gy, 75 mg/kg s.c. at 24, 48, 72, 96, 120 hrs (5×24)",100% and 75%
same,survival at 30 days,"C3H mice [3]; 8Gy, 75 mg/kg s.c. at 24, 48, 72, 96, 120 hrs (5×24), listed as Yel2",100%
same,survival at 30 days,"C3H mice [3]; 8Gy, 75 mg/kg s.c. at 1 hr and 25 hrs (1.25 schedule)",88%
same,percentage of survivors,"C3H mice [3]; 8Gy, both protocols, 252 days post irradiation",40%
same,animals still alive beyond 30 day window,"C3H mice [3]; 8Gy, both protocols, +292 days",40%
same,"survival, oral (gavage) administration","C3H mice [3]; 8Gy, oral gavage in saline, 5×24 schedule",33%
same,dose modifying factor (DMF),"C3H mice [3]; at LD50/30, 7Gy to 9.1 Gy, 75 mg/kg 5×24 s.c.",1.15
same,radioprotector characteristics (genotoxicity and cytotoxicity protection),[4],radioprotector characteristics
same,UV genotoxicity and cytotoxicity,"[5]; 15 uM, P<0.05",reduces cell death and genotoxicity; also recorded: significantly reduces genotoxicity and cytotoxicity
same,survival,"[5]; 4000 J/m^2 UV, 15 uM at 60 minutes, untreated 0.64%",1.84%
same,proliferation as compared to controls,primary keratinocytes,increased proliferation
same,doubling time of the cells,[6],extended the doubling time
same,progression into senescence,[6]; 5 uM,decreased progression of cells into senescence; also recorded: decreases the progression into senescence
